Experiments:
[1] = test system: CHOldlD/MUC1F-clone2 cells; assay: MUC1 expression in cell lysates, immunoprecipitation and SDS-PAGE western blot; format: cell-based, Chinese Hamster; conditions: 2 mM, 48 hours
[2] = molecular target: T1, secreted soluble GalNAc-T2 (sT2) (Homo sapiens, UniProt Q10471); assay: Direct binding ELISA to GalNAc-MUC1 glycopeptide, competitive inhibition, sT2
T1 construct: HIS-tagged secreted human GalNAc-T2 and -T4 were prepared from pAC-GP67-T2-sol and pAC-GP67-T4-sol cDNA; 6xHis (N); thrombin cleavage site (N); T7 tag (N); made in house; host or cells: High Five insect cells (baculovirus)
Method: (§1) Protein biotinylation was made as previously reported^62. The pH of 1 ml purified protein (0.3 mg/ml) in PBS was adjusted to pH 9 with 1 M NaOH and 40 μl N-hydroxy-succinimidobiotin (Sigma) dissolved in DMF (10 mg/ml) was added. The solution was mixed end-over-end for 2 hours at room temperature, and dialyzed three times against PBS and an equal volume of glycerol was added. The biotinylated proteins were stored at −20° C. in 50% glycerol until use.
(§2) Direct binding ELISA assay was developed as follows: Polystyrene microtiter plates (Maxisorb, Nunc, Denmark) were coated with peptides or enzymatically glycosylated glycopeptides in PBS overnight at 4° C. Plates were washed and blocked with 0.1% Tween20 and 0.2% BSA in PBS for 1 h at room temperature, followed by incubation with biotinylated proteins in PBS with 0.05% Tween20 for 2 h at room temperature. After four washes with PBS, plates were incubated with 1:2,000 dilution streptavidin-HRP (Sigma) in PBS for 30 min at room temperature and washed four times with PBS. Development was performed with 0.5 mg/ml o-phenylenediamine and 0.02% H2O2 at room temperature for 15 min, and reaction stopped by adding 100 μl/well of 0.5 N H2SO4. Competitive inhibition assays were done at end-point titers of GalNAc-transferase proteins with one hour preincubations with inhibitor.
(§3) In binding studies using lectins without biotinylation antibodies to the HIS-tag and the T7-tag, or in some experiments antibodies raised to GalNAc-T2 and -T4 enzymes were used to detect binding.

[3] = molecular target: T2, GalNAc-T4 lectin domain (T4ld) (Homo sapiens, UniProt Q8N4A0); assay: Direct binding ELISA to GalNAc-MUC1 glycopeptide, competitive inhibition, T4ld
T2 construct: made in house; host or cells: High Five insect cells (baculovirus, pAcGP67-A)
Method: as §1, §2, §3

[4] = molecular target: T3, GalNAc-T2 lectin domain (T2ld) (Homo sapiens, UniProt Q10471); assay: Direct binding ELISA to GalNAc-MUC1 glycopeptide, competitive inhibition, T2ld
T3 construct: made in house; host or cells: High Five insect cells (baculovirus, pAcGP67-A)
T3 sequence (Q10471 408-571): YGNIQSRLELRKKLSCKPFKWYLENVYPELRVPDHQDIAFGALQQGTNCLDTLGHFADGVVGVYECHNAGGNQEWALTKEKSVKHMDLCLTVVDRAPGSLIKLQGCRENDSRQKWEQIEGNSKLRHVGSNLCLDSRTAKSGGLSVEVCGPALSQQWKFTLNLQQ
Method: as §1, §2, §3

[5] = molecular target: T4, GalNAc-T4 (Homo sapiens, UniProt Q8N4A0); assay: Inhibition of glycosylation dependent (GalNAc-glycopeptide) activity of GalNAc-T4, MALDI-TOF time-course; format: biochemical; conditions: 10 mM benzyl sugar
T4 construct: using the GalNAc-T4-sol construct that encodes residues 32-578 inserted into pT7T3U19; made in house; host or cells: High Five insect cells (baculovirus, pAcGP67)
Method: MALDI-TOF time-course in terminal reactions were performed in reactions of 25 μl containing 2.5 nmol acceptor (glyco)peptide, 40 nmol UDP-GalNAc, and 0.4 μg GalNAc-T4. Sampling of reactions (1 μl) were purified by nano-scale reversed-phase chromatography (Poros R3, PerSeptive Biosystem) and applied directly to the probe with matrix (41). The amount of GalNAc-transferase added was adjusted so that the reaction with the appropriate peptide was near completion in six hours. Reactions were incubated at 37° C. in a shaker bath. At times 0, 2 hours, and 16 hours a 1 μl aliquot was taken and purified. Mass spectra were acquired on either Voyager-DE mass spectrometer equipped with delayed extraction (Perseptive Biosystem Inc.). The matrix used was 2,5-dihydroxybenzoic acid (10 mg/ml, Hewlett-Packard) dissolved in a 2:1 mixture of 0.1% trifluoroacetic acid in 30% aqueous acetonitrile (Rathburn Ltd.).
Quantification of purified proteins was done by Coomassie stained SDS-PAGE and titration of immunoreactivity with the monoclonal antibody, UH6(4G2) (8). […] Wild-type GalNAc-T4 and mutant GalNAc-T4, GalNAc-T4^459H, were analysed with unglycosylated peptides (represented by PSGL-1) or GalNAc glycosylated glycopeptides (represented by GalNAc3TAP25V21) in reactions of 25 μl containing 2.5 nmol acceptor (glyco)peptide, 40 nmol UDP-GalNAc, and 0.4 μg GalNAc-T4. Time-course assays were motioned by MALDI-TOF. Sampling of reactions (1 μl) were purified by nano-scale reversed-phase chromatography (Poros R3, PerSeptive Biosystem) and applied directly to the probe with matrix. Evaluation of inhibition of the glycopeptide specificity of wild-type GalNAc-T4 with free sugars was performed to establish if the lectin domain recognized carbohydrate. […] Further, analysis was performed with 10 mM α-D-GalNAc-1-benzyl, αGlcNAc-benzyl, and fully occupied GalNAc-glycopeptide, GalNAc6TAP25, at 5 mM.

T1 sequence (Q10471 52-571 limits assumed): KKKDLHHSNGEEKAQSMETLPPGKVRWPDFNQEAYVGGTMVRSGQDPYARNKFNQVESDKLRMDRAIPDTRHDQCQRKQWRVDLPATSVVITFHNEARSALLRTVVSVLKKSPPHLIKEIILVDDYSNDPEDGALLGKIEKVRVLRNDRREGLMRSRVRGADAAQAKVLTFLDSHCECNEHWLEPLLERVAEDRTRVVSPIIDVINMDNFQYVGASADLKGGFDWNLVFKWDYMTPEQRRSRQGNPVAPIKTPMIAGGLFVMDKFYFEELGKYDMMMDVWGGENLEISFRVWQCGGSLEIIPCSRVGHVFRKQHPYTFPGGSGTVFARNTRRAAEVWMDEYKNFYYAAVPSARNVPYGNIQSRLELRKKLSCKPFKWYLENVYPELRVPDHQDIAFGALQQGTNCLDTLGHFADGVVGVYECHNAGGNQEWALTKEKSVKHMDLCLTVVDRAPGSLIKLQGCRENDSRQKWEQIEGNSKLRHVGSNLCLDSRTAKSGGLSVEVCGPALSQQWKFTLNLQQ
T2 sequence (Q8N4A0 405-578): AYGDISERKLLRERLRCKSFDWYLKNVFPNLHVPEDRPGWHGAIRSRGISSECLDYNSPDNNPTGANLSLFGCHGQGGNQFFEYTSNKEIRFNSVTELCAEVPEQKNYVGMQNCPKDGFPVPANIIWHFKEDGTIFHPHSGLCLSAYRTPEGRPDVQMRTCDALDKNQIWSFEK
T4 sequence (Q8N4A0 32-578): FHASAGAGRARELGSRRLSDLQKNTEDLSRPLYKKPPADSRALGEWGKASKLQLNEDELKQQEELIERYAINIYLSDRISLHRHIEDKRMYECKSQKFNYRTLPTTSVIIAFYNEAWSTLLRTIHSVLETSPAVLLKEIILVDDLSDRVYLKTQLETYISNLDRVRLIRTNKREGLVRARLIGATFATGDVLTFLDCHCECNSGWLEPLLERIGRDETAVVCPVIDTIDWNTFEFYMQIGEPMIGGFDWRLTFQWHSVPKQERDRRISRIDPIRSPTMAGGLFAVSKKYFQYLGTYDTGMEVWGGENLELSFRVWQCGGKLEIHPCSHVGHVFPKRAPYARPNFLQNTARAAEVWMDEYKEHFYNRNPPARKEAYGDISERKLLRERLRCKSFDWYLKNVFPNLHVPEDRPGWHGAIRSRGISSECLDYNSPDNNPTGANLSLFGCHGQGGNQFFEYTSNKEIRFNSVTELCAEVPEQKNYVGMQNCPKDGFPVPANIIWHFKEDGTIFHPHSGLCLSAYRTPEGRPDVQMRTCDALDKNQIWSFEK

Row | SMILES | MUC1 expression ([1]; IP HMFG2, blot 5E5) | SDS-PAGE migration of MUC1 (O-glycosylation) ([1]; cells grown in Gal and GalNAc, blot 5E5) | IC50 [2] [mM] | IC50 [3] [mM] | IC50 [4] [mM] | Inhibition of glycosylation dependent specificity of GalNAc-T4 [5]
1 | CC(=O)N[C@H]1[C@@H](OCc2ccccc2)O[C@H](CO)[C@H](O)[C@@H]1O [GalNAcα-benzyl] | significant reduction in MUC1 expression | marked shift in migration | – | – | – | –
2 | CC(=O)N[C@H]1[C@@H](OCc2ccccc2)O[C@H](CO)[C@@H](O)[C@@H]1O [GlcNAcα-benzyl] | – | – | > 100 | > 100 | > 100 | did not inhibit
